Source: US4628043A, “Hypothalamic GRF agonists” (The Salk Institute for Biological Studies, priority 1985, dated 1986)
Square brackets hold non-standard residues; d marks the D form. Ends that are not written are not given here. Peptide text beside a SMILES is read from it. Nle = CCCC[C@H](N)C(=O)O

Key:
[1] = system: cells of rat pituitary glands; assay: in vitro GH release assay in cultured rat pituitary cells, hpGRF(1-40)-OH as standard; format: cell-based; conditions: for Comparison %: GH release at equimolar concentrations relative to hpGRF(1-40)-OH standard (100%), incubation 3 to 4 hours, ir GH by radioimmunoassay
Procedure: To determine the effectiveness of the various synthetic peptides to promote the release of growth hormone, in vitro assays are carried out using synthetic hpGRF(1-40)--OH as a standard in side-by-side comparison with equimolar concentrations of the various other analogs and fragments synthesized. Cultures are used which include cells of rat pituitary glands removed some three to five days previously. Cultures which are considered optimal for the secretion of growth hormone are used for the comparative testing, in the general manner described in Vale et al. Endocrinology, 91, 562-572 (1972) and as more particularly described in Vale et al. Endocrinology, (1983), in press. Incubation with the substance to be tested is carried out for 3 to 4 hours, and aliquots of the culture medium are removed and processed to measure their contents in immunoreactive GH(ir GH) by a well-characterized radioimmunoassay.

[2] = system: freely running normal male rats; assay: in vivo GH secretion after injection through an indwelling catheter, FLA-63 pretreated rats; set-up: species or system rat; conditions: blood GH by radioimmunoassay prior to and 5 and 20 minutes after injection; result in words
Procedure: In addition to the in vitro tests for secretion of growth hormone, in vivo experiments are also run by injecting the synthetic peptide through an indwelling catheter into freely running normal male rats. Animals are pretreated with FLA-63, a dopamine hydroxylase inhibitor that suppresses spontaneous GH secretion without affecting the response to exogenous GRF. Blood samples are taken through the same catheter immediately prior to and 5 and 20 minutes after injections; GH levels in blood are measured by radioimmunoassay. […] Dosages between about 40 nanograms and about 25 micrograms per Kg. of body weight are considered to be effective in causing secretion.

Row | Compound | Comparison % [1] [%] | stimulation of the secretion of pituitary GH in vivo [2] | maximum effective concentration ([1]; in vitro GH secretion, cultured rat pituitary cells) [nM] | release of GH from cultured pituitary cells ([1]; result in words)
1 | CCCC[C@H](NC(=O)[C@@H](NC(=O)[C@H](CC(=O)O)NC(=O)[C@H](CCC(N)=O)NC(=O)[C@H](CC(C)C)NC(=O)[C@H](CC(C)C)NC(=O)[C@H](CCCCN)NC(=O)[C@H](CCCNC(=N)N)NC(=O)[C@H](C)NC(=O)[C@H](CO)NC(=O)[C@H](CC(C)C)NC(=O)[C@H](CCC(N)=O)NC(=O)CNC(=O)[C@H](CC(C)C)NC(=O)[C@@H](NC(=O)[C@H](CCCCN)NC(=O)[C@H](CCCNC(=N)N)NC(=O)[C@H](Cc1ccc(O)cc1)NC(=O)[C@H](CO)NC(=O)[C@H](CC(N)=O)NC(=O)[C@@H](NC(=O)[C@H](Cc1ccccc1)NC(=O)[C@@H](NC(=O)[C@H](C)NC(=O)[C@H](CC(=O)O)NC(=O)[C@H](C)NC(=O)[C@@H](N)Cc1ccc(O)cc1)[C@@H](C)CC)[C@@H](C)O)C(C)C)[C@@H](C)CC)C(=O)N[C@@H](CC(N)=O)C(=O)N[C@@H](CCCNC(=N)N)C(N)=O [[Nle^27,Asn^28]--hGRF(1-29)-NH2, H--Tyr--Ala--Asp--Ala--Ile--Phe--Thr--Asn--Ser--Tyr--Arg--Lys--Val--Leu--Gly--Gln--Leu--Ser--Ala--Arg--Lys--Leu--Leu--Gln--Asp--Ile--Nle--Asn--Arg--NH2] (H-YADAIFTNSYRKVLGQLSARKLLQDI[Nle]NR-NH2) | 520 |  |  | 
2 | CC[C@H](C)[C@H](NC(=O)[C@H](C)NC(=O)[C@H](CC(=O)O)NC(=O)[C@H](C)NC(=O)[C@@H](N)Cc1c[nH]cn1)C(=O)N[C@@H](Cc1ccccc1)C(=O)N[C@H](C(=O)N[C@@H](CO)C(=O)N[C@@H](CO)C(=O)N[C@@H](Cc1ccc(O)cc1)C(=O)N[C@@H](CCCNC(=N)N)C(=O)N[C@@H](CCCNC(=N)N)C(=O)N[C@H](C(=O)N[C@@H](CC(C)C)C(=O)NCC(=O)N[C@@H](CCC(N)=O)C(=O)N[C@@H](CC(C)C)C(=O)N[C@@H](Cc1ccc(O)cc1)C(=O)N[C@@H](C)C(=O)N[C@@H](CCCNC(=N)N)C(=O)N[C@@H](CCCCN)C(=O)N[C@@H](CC(C)C)C(=O)N[C@@H](CC(C)C)C(=O)N[C@@H](Cc1c[nH]cn1)C(=O)N[C@@H](CCC(=O)O)C(=O)N[C@H](C(=O)N[C@@H](CCSC)C(=O)N[C@@H](CC(N)=O)C(=O)N[C@@H](CCCNC(=N)N)C(=O)N[C@@H](CCC(N)=O)C(=O)N[C@@H](CCC(N)=O)C(=O)NCC(=O)N[C@@H](CCC(=O)O)C(=O)N[C@@H](CCCNC(=N)N)C(=O)N[C@@H](CC(N)=O)C(=O)N[C@@H](CCC(N)=O)C(=O)N[C@@H](CCC(=O)O)C(=O)N[C@@H](CCC(N)=O)C(=O)N[C@@H](CCCNC(=N)N)C(=O)N[C@@H](CO)C(=O)N[C@@H](CCCNC(=N)N)C(=O)N[C@@H](Cc1ccccc1)C(=O)N[C@@H](CC(N)=O)C(=O)O)[C@@H](C)CC)[C@@H](C)CC)[C@@H](C)O [rGRF(1-43)--OH, H--His--Ala--Asp--Ala--Ile--Phe--Thr--Ser--Ser--Tyr--Arg--Arg--Ile--Leu--Gly--Gln--Leu--Tyr--Ala--Arg--Lys--Leu--Leu--His--Glu--Ile--Met--Asn--Arg--Gln--Gln--Gly--Glu--Arg--Asn--Gln--Glu--Gln--Arg--Ser--Arg--Phe--Asn--OH] |  | powerful stimulators of the secretion of pituitary GH | 1 | releases GH from cultured pituitary cells
3 | npGRF(1-40)-OH: synthetic hpGRF(1-40)--OH used as a standard in the in vitro assays (YADAIFTNSYRKVLGQLSARKLLQDIMSRQQGESNQERGA-OH; UniProt P01286 32-71, looked up, fragment) [reference compound] | 100 |  |  | 
